This note sets out measurements from patent publication US20030181447A1, “3-(Diarylmethylene)-8-azabicyclo[3.2.1]octane derivatives” (priority 2001, published 2003).

Counter-ions that a name gives are not always drawn.

Tested on in the first data set: not given
Test: not given
Settings: not given
The term melting point denotes the temperature, or range, at which the solid turns liquid. Turning to `CCNC(=O)c1ccc(C(=C2CC3CCC(C2)N3CCc2ccccc2)c2ccccc2)cc1` (as salt: HCl) [Example 26, N-Ethyl-4-[(8-phenethyl-8-azabicyclo[3.2.1]oct-3-ylidene)phenylmethyl]benzamide], the melting point is 296 to 298 °C (dec.).

The compound `NC(=O)c1ccc(C(=C2CC3CCC(C2)N3CCc2ccccc2)c2ccccc2)cc1` (as salt: hydrochloride) [Example 29, 4-[(8-Phenethyl-8-azabicyclo[3.2.1]oct-3-ylidene)phenylmethyl]benzamide Hydrochloride [1:1].] gave a melting point of 210 to 212 °C.

For the compound `CCN(CC)C(=O)c1ccc(C(=C2CC3CCC(C2)N3CCc2ccccc2)c2ccccc2)cc1` (single isomer, unassigned; (+)) (as salt: hydrochloride) [Example 24], the melting point is 211 to 212 °C.

Take `CCN(CC)C(=O)c1ccc(C(=C2CC3CCC(C2)N3CCc2ccccc2)c2ccccc2)cc1` (single isomer, unassigned; (-)) (as salt: hydrochloride) [Example 23]: the melting point fell in the range of 210 to 211 °C.

For `CCN(CC)C(=O)c1ccc(C(=C2CC3CCC(C2)N3C)c2ccccc2)cc1.Cl` [Example 1, N,N-Diethyl-4-[(8-methyl-8-azabicyclo[3.2.1]oct-3-ylidene)phenylmethyl]benzamide Hydrochloride [1:1]], the melting point fell in the range of 145 to 147 °C.

`CCN(CC)C(=O)c1ccc(C(=C2CC3CCC(C2)N3)c2ccccc2)cc1.Cl` [Example 2, N,N-Diethyl-4-[(8-azabicyclo[3.2.1]oct-3-ylidene)phenylmethyl]benzamide Hydrochloride [1:1]] yielded a melting point of 128 to 132 °C.

On to `CCCN1C2CCC1CC(=C(c1ccccc1)c1ccc(C(=O)N(CC)CC)cc1)C2.Cl` [Example 18, N,N-Diethyl-4-[(8-propyl-8-azabicyclo[3.2.1]oct-3-ylidene)phenylmethyl]benzamide Hydrochloride [1:1]], for which the melting point was 184 °C.

As to `CN(C(=O)c1cccc(C(=C2CC3CCC(C2)N3C)c2ccccc2)c1)c1cccc(F)c1.O=C(O)/C=C/C(=O)O` [Example 22, N-(3-Fluorophenyl)-N-methyl-3-[(8-methyl-8-azabicyclo[3.2.1]oct-3-ylidene)phenylmethyl]benzamide Fumarate [1:1]], the melting point was 122 to 125 °C.

A further data set relates to mouse acetylcholine bromide-induced abdominal constriction. Kind of data set: Mouse acetylcholine bromide-induced abdominal constriction assay. Format: in vivo. The settings on record: 150 μmole/Kg p.o., 30 min before 5.5 mg/kg acetylcholine bromide i.p. The procedure:
Mouse Acetylcholine Bromide-Induced Abdominal Constriction Assay
The mouse acetylcholine-induced abdominal constriction assay (as described by Collier et al. in Brit. J. Pharmacol. Chem. Ther., 1968, 32: 295-310 with minor modifications) was used to assess analgesic potency of the compounds of formula (I). The test drugs or appropriate vehicles were administered orally (p.o.) and 30 min later the animal received an intraperitoneal (i.p.) injection of 5.5 mg/kg acetylcholine bromide (Matheson, Coleman and Bell, East Rutherford, N.J.). The mice were then placed in groups of three into glass bell jars and observed for a ten min observation period for the occurrence of an abdominal constriction response (defined as a wave of constriction and elongation passing caudally along the abdominal wall, accompanied by a twisting of the trunk and followed by extension of the hind limbs). For compounds of the present invention, the percent inhibition of this response to a nociceptive stimulus (equated to % analgesia) was calculated as follows: [formula]
For the compound `CCN(CC)C(=O)c1ccc(C(=C2CC3CCC(C2)N3C)c2ccccc2)cc1.Cl` [Example 1, N,N-Diethyl-4-[(8-methyl-8-azabicyclo[3.2.1]oct-3-ylidene)phenylmethyl]benzamide Hydrochloride [1:1]], the “percent inhibition of abdominal constriction response (% analgesia)” value is 87%.
